Literature values as cited in patent US5972966A, “Inhibitors of farnesyl-protein transferase” (Merck & Co., Inc., priority 1997, dated 1999).

Key:
[1] = tested on: farnesyl-protein transferase; conditions: by inhibiting HMG-CoA reductase
[2] = tested on: Ras processing in cells; conditions: by inhibiting the rate-limiting step in the isoprenoid biosynthetic pathway

SMILES	Indirect inhibition of farnesyl-protein transferase in vivo [1]	blocking of Ras processing in cells [2]
CC[C@H](C)C(=O)O[C@H]1CCC=C2C=C[C@H](C)[C@H](CC[C@@H]3C[C@@H](O)CC(=O)O3)[C@H]21 [compactin]	Indirect inhibition	–
CC[C@H](C)C(=O)O[C@H]1C[C@@H](C)C=C2C=C[C@H](C)[C@H](CC[C@@H]3C[C@@H](O)CC(=O)O3)[C@H]21 [lovastatin]	Indirect inhibition	blocks Ras processing in cells
